Source: publication PMC6958523, “Metabolism and Pharmacokinetic Study of the Boron-Containing Prodrug of Belinostat (ZL277), a Pan HDAC Inhibitor with Enhanced Bioavailability” (Pharmaceuticals, 2019)

Assays:
[1] = In vitro sulfation of ZL277 in liver cytosol with PAPS; assay type: in vitro ADME; conditions: rat liver cytosol, 30 min
Protocol: The incubation of ZL277 with liver cytosols followed a similar procedure to the study of sulfation of ZB716 [23]. After termination of incubation with 300 µL MeOH, the final mixture was centrifuged. The supernatant was analyzed on the UHPLC-Q-Exactive instrument.
(§1) The samples from in vitro incubations were run on a Hypersil GOLD C18 column (1.8 µm, 2.1 × 50 mm) with UHPLC ultimate 3000 from Dionex coupled with one Q-Exactive HR mass spectrometer (Thermo Scientific, Waltham, MA, USA). The gradient started at 20% mobile phase B (Acetonitrile with 0.05% formic acid) and 80% mobile phase A (water with 0.05% formic acid), increased to 100% B in 4.5 min at 0.3 mL/min, stayed for 5 min, then came back to 30% B until equilibration. PRM mode or full scan mode was used to identify the interested metabolites.

[2] = Metabolites of ZL277 in urine and fecal samples from treated mice; assay type: in vivo; conditions: for relative abundance among metabolites in feces / relative abundance among metabolites in urine: mice treated with ZL277; for metabolite detected in Urine: mice after IP injection of ZL277
Protocol: (§2) Four to six-week-old female ovariectomized Nu/Nu mice (Genotype: Homozygous genotype, homozygous for Foxn1), purchased from Charles River Laboratories (Wilmington, MA, USA), were used for the study of ZL277 metabolites in vivo. Six mice in each group were given ethanol-dissolved ZL277 and belinostat, at a single dose of 10 mg/kg by intraperitoneal injection (IP). After IP administration, venous blood samples were collected at 1, 3, 6, and 24 h time points. Urine and fecal samples were collected for the time duration of 0–8 h, 8–24 h, 24–32 h, and 32–48 h after IP administration.
(§3) Plasma, urine, or feces samples were processed following protocols published previously. These samples were injected on the Hypersil GOLD C18 column (1.8 µm, 2.1 × 50 mm) with UHPLC ultimate 3000 from Dionex, coupled with a […] mass spectrometer, to quantitate the concentration of the main metabolites of ZL277. The 10 µL samples were run with the gradient starting at 0.3 mL/min from 2% mobile phase B (acetonitrile with 0.05% formic acid) and 98% mobile phase A (water with 0.05% formic acid) until 1 min, up to 30% B at 3 min, 45% B at 4.8 min, 100% B at 5.5 min, then back to 30% B until equilibration. SRM mode was used to detect ZL277 (pos 535.21→134.97), ZL277-B(OH)2-452 (neg 451.13→256.04), ZL277-424-OH (neg 423.07→317.04), belinostat (neg 317.02→245.05) or (pos 319.08→93.08), belinostat amide (pos 303.08→91.05), belinostat acid (neg 302.05→92.05), methylated belinostat (pos 333.09→239.92). The product scan in MS/MS mode was used to detect belinostat–sulfate (neg 397.02→97.02), and belinostat–glucoronate (pos 495.09→319.27). The […] was set at spray voltage at 3200 V, vaporizer temperature at 365 °C, sheath gas pressure at 33 psi, auxiliary gas pressure at 10 psi, and capillary temperature at 350 °C. Additional experimental details can be found in Figures S1 and S2, and Tables S1–S8.
Sample preparation protocols: […]
(2) Feces sample preparation: The collected feces samples were weighed on an OHAUS Explorer balance. The internal standard of trans-tamoxifen-13C2,15N (0.5 ng/μL in methanol) was added to the feces samples based on 10 ng/g feces according to the weight of the feces collected. Methanol was added at the ratio of 4 mL/g feces. Then the samples were homogenized with a Power Gen 125 homogenizer (Fisher Scientific) and stored at - 20 °C overnight. After sonicating for 30 min, the samples were centrifuged with a Heraeus Megafuge16R centrifuge at 3000 RPM. The supernatant was dried at room temperature and resuspended with corresponding amount of methanol (200 μL methanol/g feces) for injection on the TSQ Vantage instrument.
(3) Urine sample preparation: Urine samples were thawed at room temperature and vortexed. 200 μL of the sample was transferred to a 1.5 mL Eppendorf microcentrifuge tube followed by adding 200 μL methanol and 10 μL of the 0.5 ng/μL trans-tamoxifen-13C2, 15N in methanol solution. After Vortaxing and centrifuging, the top supernatant was injected on the UPLC-TSQ Vantage mass spectrometer instrument for analysis.

[3] = In vitro metabolism of ZL277 in liver S9 fraction with NADPH; assay type: in vitro ADME; conditions: rat liver S9, NADPH, 1 h
Protocol: The incubation of ZL277 with liver S9 fractions followed the procedures of incubation with liver microsomes, as described previously. The pre-incubation solution consisted of 30 µL of potassium phosphate buffer (pH 7.4; 10X), 241.5 µL water, 15 µL of NADPH solution A, 3 µL of NADPH solution B, 7.5 µL rat liver S9 fractions. After incubation at 37 °C for 5 min in a 1.5 mL microcentrifuge vial, 3 µL of 10 mM ZL277 was added, mixed, and incubated at 37 °C for another 60 min in the incubator. Then, 300 µL MeOH was added to terminate the reaction. After centrifugation, the supernatant was analyzed on the UHPLC, coupled to a Q-Exactive high-resolution mass spectrometer.
as §1

[4] = Pharmacokinetics and in vivo metabolites of ZL277 in mice plasma after single IP dose; conditions: for metabolite detected in Plasma: mice after IP injection of ZL277
Protocol: as §2, §3
Sample preparation protocols:
(1) Plasma sample preparation: Plasma samples (100 μL) were extracted with methanol.
Internal standard (10 μL 0.5 ng/μL trans-tamoxifen-13C2, 15N in methanol), methanol
(0.5 mL) were added to each plasma sample. The mixtures were stored at −20 °C
overnight. Samples were sonicated for 10 min and then centrifuged on a Heraeus Fresco

[5] = tested on: MDA-MB-231; parameters: method as in PMID 29456804; conditions: cited from earlier work
[6] = tested on: MCF-7 tumor xenograft; parameters: method as in PMID 29456804; conditions: mice; cited from earlier work
[7] = tested on: MCF-7; parameters: method as in PMID 29456804; conditions: cited from earlier work
[8] = Drug and metabolite concentrations in MCF-7 xenograft breast tumor tissues of treated mice; assay type: in vivo; conditions: breast tumor xenograft in mice treated with ZL277
Protocol: Four to six week old female ovariectomized Nu/Nu mice, implanted subcutaneously with 17β-Estradiol pellets, were injected with MCF-7 cells harvested in the exponential growth phase to grow the breast tumors. On day 15 after tumor formation, the mice were treated with vehicle, belinostat, at 10 mg/kg/day, or ZL277 at 10 mg/kg/day, by subcutaneous injection. On the last day of the study, the tumors were collected and frozen for analysis.
as §3

Structure (SMILES)	relative abundance among metabolites in feces [2]	relative abundance among metabolites in urine [2]	metabolite detected in Urine [2]	metabolite detected in Tumor [8]	metabolite detected in Plasma [4]	further results
O=C(/C=C/c1cccc(S(=O)(=O)Nc2ccccc2)c1)NOCc1ccc(OS(=O)(=O)O)cc1 [ZL277-OH-424-sufate]	–	–	–	–	–	sulfate conjugate found after incubation of ZL277 [1]: detected
O=C(/C=C/c1cccc(S(=O)(=O)Nc2ccccc2)c1)NOCc1ccc(O)cc1 [ZL277-OH-424]	major metabolites	major components	–	–	–	metabolite found after incubation of ZL277 with liver S9 fraction [3]: major oxidative metabolite
CC1(C)OB(c2ccc(CONC(=O)/C=C/c3cccc(S(=O)(=O)Nc4ccccc4)c3)cc2)OC1(C)C [ZL277]	–	–	–	–	–	bioavailability compared to belinostat ([4]; mice, 10 mg/kg IP): superior; antiproliferative activity compared with belinostat [5]: slightly weaker; effect on growth of MCF-7 tumor xenograft [6]: caused tumor regression; metabolite found after incubation of ZL277 with liver S9 fraction [3]: not found; antiproliferative activity compared with belinostat [7]: slightly weaker
O=C(/C=C/c1cccc(S(=O)(=O)Nc2ccccc2)c1)NO [Belinostat, belinostat]	major metabolites	major components	detected	found	detected	effect on growth of MCF-7 tumor xenograft [6]: only inhibited tumor growth
O=C(O)/C=C/c1cccc(S(=O)(=O)Nc2ccccc2)c1 [Belinostat acid, belinostat acid]	dominantly	dominant components	detected	found	detected	–
O=C(/C=C/c1cccc(S(=O)(=O)Nc2ccccc2)c1)NOCc1ccc(B(O)O)cc1 [ZL277-B(OH)2-452]	major metabolites	major components	–	–	–	relative abundance among drug-related forms in plasma ([4]; mice treated with ZL277): predominant form
CONC(=O)/C=C/c1cccc(S(=O)(=O)Nc2ccccc2)c1 [Methylated belinostat, methylated belinostat]	–	–	detected	found	detected	–
NC(=O)/C=C/c1cccc(S(=O)(=O)Nc2ccccc2)c1 [Belinostat amide, belinostat amide]	–	–	detected	found	detected	–
O=C(/C=C/c1cccc(S(=O)(=O)Nc2ccccc2)c1)NOS(=O)(=O)O [Belinostat–sulfate]	–	–	–	–	–	sulfate conjugate found after incubation of ZL277 [1]: No peak
